From patent US12427180B2, “Treatment of respiratory tract diseases and infections with ascorbic acid compositions” (RENOVION, INC., priority 2016, dated 2025)

Key:
MRSA UAB-3 = assay: MIC against MRSA UAB-3; format: cell-based, Staphylococcus aureus; settings: Anaerobic (+nitrate), 12 hrs
Experimental: (§1) The MICs of Composition 1 (glutathione, ascorbic acid, and HCO3); glutathione and ascorbic acid; and HCO3 were tested against clinical isolates, including Burkholderia cepacia, Pseudomonas aeruginosa (Schroeter) Migula (ATCC 27853), Pseudomonas aeruginosa (Schroeter) Migula (ATCC 9027), Pseudomonas aeruginosa (Schroeter) Migula (ATCC BAA-2114), Klebsiella pneumonia, methicillin resistant Staphylococcus aureus; laboratory strains of Moraxella catarrhalis, Stenotrophomonas maltophilia, Acinetobacter baumannii; and eight samples of mucoid and nonmucoid Pseudomonas aeruginosa clinical isolates from human lung. The MIC for laboratory clinical isolate Pseudomonas aeruginosa (Schroeter) Migula (ATCC BAA-47 (PAO1)) was also tested. The MICs were determined under anaerobic conditions on media supplemented with nitrate, under aerobic conditions supplemented with nitrate, or under ambient conditions.
(§2) The clinical isolates were inoculated in duplicate on agar plates overnight under anaerobic conditions at 36° C.±1.0° C. in a 96-well plate. Laboratory isolates of Burkholderia cepacia were also grown in duplicate overnight under aerobic conditions at 36° C.±1.0° C. in a 96-well plate. […] MICs were determined via visual inspection and OD620.

[1] = tested on: Pseudomonas aeruginosa (Schroeter) Migula (ATCC BAA-47 (PAO1)); assay: MIC against Pa BAA-47 (PAO1); format: cell-based; settings: Anaerobic (+nitrate), 12 hrs
Experimental: as §1, §2

[2] = tested on: Pa UAB-M-2 (mucoidy P. aeruginosa clinical isolate from lung); assay: MIC against Pa UAB-M-2; format: cell-based, Pseudomonas aeruginosa; settings: Anaerobic (+nitrate), 12 hrs
Experimental: as §1, §2

[3] = tested on: Pa UAB-NM-3 (nonmucoidy P. aeruginosa clinical isolate from lung); assay: MIC against Pa UAB-NM-3; format: cell-based, Pseudomonas aeruginosa; settings: Anaerobic (+nitrate), 12 hrs
Experimental: as §1, §2

[4] = tested on: Pa UAB-NM-5 (nonmucoidy P. aeruginosa clinical isolate from lung); assay: MIC against Pa UAB-NM-5; format: cell-based, Pseudomonas aeruginosa; settings: Anaerobic (+nitrate), 12 hrs
Experimental: as §1, §2

[5] = tested on: Pa UAB-NM-1 (nonmucoidy P. aeruginosa clinical isolate from lung); assay: MIC against Pa UAB-NM-1; format: cell-based, Pseudomonas aeruginosa; settings: Anaerobic (+nitrate), 12 hrs
Experimental: as §1, §2

MRSA UAB-1 = assay: MIC against MRSA UAB-1; format: cell-based, Staphylococcus aureus; settings: Anaerobic (+nitrate), 12 hrs
Experimental: as §1, §2

[6] = Stability: oxidized glutathione and reduced ascorbic acid after storage; format: physicochemical; settings: ascorbic acid only, pH not given; Ambient; stored at 5° C. for 4 weeks
Experimental: The amount of glutathione and ascorbic acid oxidiation were determined for Composition 1 at pH 5.5, 6.0, and 6.5. Oxidized glutathione is associated with the generation of protein-carbonyls via glutathionlyation, which occurs when oxidized glutathione dissociates and attaches to proteins. The % oxidized glutathione (% GSSG) was determined after 4 weeks of storage of Composition 1 at pH 5.5, 6.0, and 6.5 under N2-sparged and ambient conditions. Additionally, when ascorbic acid is oxidized into dehydroascorbate (DHA), DHA can break down and result in the formation of protein adducts in process called ascorbylation (Simpson et al., Biochim biophys Acta 2000; 1501:12-24). The % reduced ascorbic acid maintained in Composition 1 (% ASC) was determined after 4 weeks of storage of Composition 1 at pH 5.5, 6.0, and 6.5 under N2-sparged (anaerobic) and ambient conditions. Specifically, nitrogen-sparged samples were mixed under anaerobic conditions sparged with nitrogen, and the samples were packaged using nitrogen bubbling. Ambient samples were mixed under room air conditions and were not bubbled with nitrogen. The formulations were stored at 5° C. for 4 weeks, and the percent of oxidized glutathione (GSSG) and ascorbic acid (ASC) was measured for each sample according to standard techniques.

Structure (SMILES) | MIC (MRSA UAB-3) | MIC [1] | MIC [2] | MIC [3] | MIC [4] | MIC [5] | MIC (MRSA UAB-1) | % ASC (reduced ascorbic acid maintained) [6] [%]
O=C([O-])O.[Na+] [HCO3, sodium bicarbonate] | 25% (12 | 12.5% (12 | 12.5%(12 | 12.5% (12 | 12.5% (12 | 12.5%(12 | 25% (12 | 
O=C1O[C@H]([C@@H](O)CO)C(O)=C1O [Ascorbic Acid Only, ascorbic acid] |  |  |  |  |  |  |  | 77.88
